Source: ChEMBL document CHEMBL4828769, “Discovery of AS-0141, a Potent and Selective Inhibitor of CDC7 Kinase for the Treatment of Solid Cancers” (J Med Chem, 2021)
Activity calls are given as the source filed them. The rule behind the calls is not given here.

Key:
[1] = target: T1, Cell division cycle 7-related protein kinase (Homo sapiens, UniProt O00311); test: Inhibition of CDC7 in human COLO205 cells assessed as reduction in MCM2 phosphorylation at S53 residue at 0.1 uM incubated for 48 hrs by Western blot analysis relative to control; type: cell-based; conditions: COLO 205
Target sequence in this assay (O00311 whole entry, looked up): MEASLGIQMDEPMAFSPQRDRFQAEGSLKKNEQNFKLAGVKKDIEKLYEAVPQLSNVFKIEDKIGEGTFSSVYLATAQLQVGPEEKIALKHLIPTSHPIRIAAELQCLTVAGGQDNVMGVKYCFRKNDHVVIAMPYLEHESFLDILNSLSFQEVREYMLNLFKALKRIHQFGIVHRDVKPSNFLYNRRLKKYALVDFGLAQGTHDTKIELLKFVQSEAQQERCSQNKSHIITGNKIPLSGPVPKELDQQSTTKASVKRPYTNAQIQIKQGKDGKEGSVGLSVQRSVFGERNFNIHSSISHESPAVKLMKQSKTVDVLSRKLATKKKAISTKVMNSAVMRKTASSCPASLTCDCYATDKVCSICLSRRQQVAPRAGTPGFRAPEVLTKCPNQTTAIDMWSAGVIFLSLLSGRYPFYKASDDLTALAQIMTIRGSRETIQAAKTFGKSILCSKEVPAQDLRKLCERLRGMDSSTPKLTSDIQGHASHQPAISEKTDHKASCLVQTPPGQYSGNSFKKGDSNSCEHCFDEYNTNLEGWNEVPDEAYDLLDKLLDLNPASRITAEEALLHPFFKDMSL

[2] = target: T2, Serine/threonine-protein kinase pim-1 (Homo sapiens, UniProt P11309); test: Inhibition of PIM1 (unknown origin) in presence of 1 mM ATP with preincubation
Target sequence in this assay (P11309 whole entry): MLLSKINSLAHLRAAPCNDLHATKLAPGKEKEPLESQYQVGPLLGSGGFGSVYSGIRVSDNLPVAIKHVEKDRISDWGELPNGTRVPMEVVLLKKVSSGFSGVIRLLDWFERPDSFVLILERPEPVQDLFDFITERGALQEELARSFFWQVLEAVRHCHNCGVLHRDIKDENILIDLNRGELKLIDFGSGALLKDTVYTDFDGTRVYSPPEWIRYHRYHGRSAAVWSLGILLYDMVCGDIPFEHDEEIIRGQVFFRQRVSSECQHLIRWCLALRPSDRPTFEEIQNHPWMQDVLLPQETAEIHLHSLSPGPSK

COLO 205 = test: Induction of cell cycle arrest in human COLO205 cells assessed as accumulation of cells at sub-G1 phase at 1 uM incubated for 48 hrs by propidium iodide staining based flow cytometry analysis; type: functional
[3] = target: T3, Glycogen synthase kinase-3 alpha (Homo sapiens, UniProt P49840); test: Inhibition of GSK3alpha (unknown origin) at 0.1 uM in presence of 1 mM ATP relative to control
Target sequence in this assay (P49840 2-483 limits assumed): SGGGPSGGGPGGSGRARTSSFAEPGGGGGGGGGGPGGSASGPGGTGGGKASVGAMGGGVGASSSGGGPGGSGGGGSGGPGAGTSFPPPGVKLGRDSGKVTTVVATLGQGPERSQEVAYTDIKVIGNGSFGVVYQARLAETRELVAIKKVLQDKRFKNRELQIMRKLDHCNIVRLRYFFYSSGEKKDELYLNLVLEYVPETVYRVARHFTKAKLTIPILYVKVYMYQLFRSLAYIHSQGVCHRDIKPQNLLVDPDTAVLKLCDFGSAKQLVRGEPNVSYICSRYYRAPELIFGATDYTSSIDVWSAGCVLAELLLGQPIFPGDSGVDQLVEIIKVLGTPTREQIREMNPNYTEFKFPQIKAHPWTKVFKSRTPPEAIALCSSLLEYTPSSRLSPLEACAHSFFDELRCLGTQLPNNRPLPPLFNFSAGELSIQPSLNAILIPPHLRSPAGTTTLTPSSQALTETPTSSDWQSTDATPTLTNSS

[4] = target: T1, Cell division cycle 7-related protein kinase; test: Inhibition of CDC7 in human SW-620 cells assessed as reduction in phosphorylation of MCM2 at Ser40 residue incubated for 48 hrs by Western blot analysis; type: cell-based
[5] = Half life in dog at 2 mg/kg, po; type: ADME, organism-based, Canis lupus familiaris; conditions: in vivo
[6] = target: Dual specificity protein kinase CLK1 (Homo sapiens, UniProt P49759); test: Inhibition of CLK1 (unknown origin) in presence of 1 mM ATP with preincubation
[7] = Metabolic stability in human liver microsomes assessed as parent compound remaining after 30 mins; type: ADME, Microsome; conditions: liver microsomes, read-out: Stability
[8] = AUC(0 to infinity) in mouse at 10 mg/kg, po; type: ADME, organism-based; parameters: time infinity, route oral, dose 10 mg/kg; conditions: in vivo
[9] = Clearance in dog at 1 mg/kg, iv; type: ADME, organism-based, Canis lupus familiaris; conditions: in vivo
[10] = Inhibition of human CDC7/ASK using FITC-labelled MCM2 substrate in presence of 5 uM of ATP
[11] = Cmax in mouse at 1 mg/kg, iv; type: ADME, organism-based; parameters: route intravenous, dose 1 mg/kg; conditions: in vivo
[12] = Half life in rat at 10 mg/kg, po; type: ADME, organism-based; conditions: in vivo
[13] = target: T2, Serine/threonine-protein kinase pim-1; test: Inhibition of PIM1 (unknown origin) at 0.1 uM in presence of 1 mM ATP relative to control
Target sequence in this assay (P11309 whole entry, looked up): as the sequence (P11309 whole entry) above

[14] = AUC(0 to infinity) in dog at 2 mg/kg, po; type: ADME, organism-based, Canis lupus familiaris; parameters: route oral, time infinity, dose 2 mg/kg; conditions: in vivo
SW-620 [15] = test: Induction of apoptosis in human SW-620 cells assessed as increase in gamma-H2AX level incubated for 48 hrs by Western blot analysis; type: functional, cell-based; conditions: dose 0.03-1 µM
[16] = Clearance in mouse at 1 mg/kg, iv; type: ADME, organism-based; conditions: in vivo
[17] = Cmax in mouse at 10 mg/kg, po; type: ADME, organism-based; parameters: route oral, dose 10 mg/kg; conditions: in vivo
[18] = AUC(0 to infinity) in rat at 2 mg/kg, iv; type: ADME, organism-based; parameters: route intravenous, time infinity, dose 2 mg/kg; conditions: in vivo
[19] = Volume of distribution in mouse at 1 mg/kg, iv; type: ADME, organism-based; conditions: in vivo
[20] = MRT in dog at 1 mg/kg, iv; type: ADME, organism-based, Canis lupus familiaris; conditions: in vivo
[21] = Protein binding in human plasma assessed as unbound fraction; type: ADME, cell-free
[22] = Inhibition of human CDC7/ASK using FITC-labelled MCM2 substrate in presence of 1 mM of ATP
[23] = In vivo inhibition of CDC7 in human SW-620 cells xenografted in BALB/c nude mouse assessed as reduction in phosphorylation of MCM2 at Ser53 residue at 120 mg/kg, po measured after 8 hrs; type: functional; conditions: SW-620, po
[24] = Metabolic stability in mouse liver microsomes assessed as parent compound remaining after 30 mins; type: ADME, Microsome; conditions: liver microsomes, read-out: Stability
[25] = target: T1, Cell division cycle 7-related protein kinase; test: Inhibition of CDC7 in human COLO 205 cells assessed as reduction in phosphorylation of MCM2 at 1 uM preincubated for 48 hrs followed by compound washout measured after 24 hrs by Western blot analysis; type: cell-based
Target sequence in this assay (O00311 whole entry, looked up): as the sequence (O00311 whole entry, looked up) above

[26] = target: T1, Cell division cycle 7-related protein kinase; test: Inhibition of CDC7 in human SW-620 cells assessed as reduction in phosphorylation of MCM2 at Ser53 residue incubated for 48 hrs by Western blot analysis; type: cell-based
[27] = Half life in rat at 2 mg/kg, iv; type: ADME, organism-based; conditions: in vivo
[28] = Clearance in rat at 2 mg/kg, iv; type: ADME, organism-based; conditions: in vivo
[29] = target: T1, Cell division cycle 7-related protein kinase; test: Inhibition of CDC7 in human SW-620 cells assessed as reduction in phosphorylation of MCM2 at Ser41 residue at 0.03 to 1 uM incubated for 48 hrs by Western blot analysis; type: cell-based; conditions: dose 0.03-1 µM
Target sequence in this assay (O00311 whole entry, looked up): as above

[30] = Inhibition of human CDC7/ASK using FITC-labelled MCM2 substrate preincubated for 30 mins followed by substrate addition and measured after 5 hrs in presence of 1 mM of ATP
[31] = Cmax in dog at 2 mg/kg, po; type: ADME, organism-based, Canis lupus familiaris; parameters: route oral, dose 2 mg/kg; conditions: in vivo
[32] = Oral bioavailability in dog at 2 mg/kg; type: ADME, organism-based, Canis lupus familiaris; conditions: in vivo
[33] = Cmax in rat at 2 mg/kg, iv; type: ADME, organism-based; parameters: route intravenous, dose 2 mg/kg; conditions: in vivo
[34] = Volume of distribution in rat at 2 mg/kg, iv; type: ADME, organism-based; conditions: in vivo
[35] = MRT in mouse at 1 mg/kg, iv; type: ADME, organism-based; conditions: in vivo
SW-620 [36] = test: Antitumor activity against human SW-620 cells xenografted in BALB/c nude mouse assessed as tumor growth inhibition at 120 mg/kg, po administered daily for 21 days; type: functional; conditions: SW-620, po, 504 h, time 21 day, read-out: TGI
Homo sapiens [37] = species: Homo sapiens; test: Selectivity index, ratio of IC50 for CLK1 (unknown origin) in presence of 1 mM ATP without preincubation to IC50 for CLK1 (unknown origin) in presence of 1 mM ATP with preincubation
[38] = Tmax in mouse at 10 mg/kg, po; type: ADME, organism-based; conditions: in vivo
[39] = In vivo inhibition of CDC7 in human SW-620 cells xenografted in BALB/c nude mouse assessed as reduction in phosphorylation of MCM2 at Ser53 residue at 120 mg/kg, po measured after 24 hrs; type: functional; conditions: SW-620, po
[40] = Metabolic stability in rat liver microsomes assessed as parent compound remaining after 30 mins; type: ADME, Microsome; conditions: read-out: Stability
[41] = target: T3, Glycogen synthase kinase-3 alpha; test: Inhibition of GSK3alpha (unknown origin) in presence of 1 mM ATP with preincubation
Target sequence in this assay (P49840 whole entry): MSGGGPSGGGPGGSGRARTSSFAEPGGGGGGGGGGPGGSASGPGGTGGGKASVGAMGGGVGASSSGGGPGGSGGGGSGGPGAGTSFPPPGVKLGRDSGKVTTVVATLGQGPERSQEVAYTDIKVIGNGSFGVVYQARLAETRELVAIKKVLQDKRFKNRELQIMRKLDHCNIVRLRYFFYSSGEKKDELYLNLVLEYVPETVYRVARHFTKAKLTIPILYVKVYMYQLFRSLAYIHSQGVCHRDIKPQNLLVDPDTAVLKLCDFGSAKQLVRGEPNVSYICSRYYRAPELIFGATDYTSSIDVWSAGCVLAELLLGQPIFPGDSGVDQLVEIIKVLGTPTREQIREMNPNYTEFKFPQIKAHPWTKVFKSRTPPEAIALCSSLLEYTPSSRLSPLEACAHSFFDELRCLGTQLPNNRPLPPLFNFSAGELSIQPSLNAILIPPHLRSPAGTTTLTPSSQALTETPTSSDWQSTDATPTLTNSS

Homo sapiens [42] = species: Homo sapiens; test: Selectivity index, ratio of IC50 for inhibition of human CDC7 in presence of 1 mM ATP without preincubation to IC50 for inhibition of human CDC7 using FITC-labelled MCM2 substrate preincubated for 30 mins followed by substrate addition and measured after 5 hrs in presence of 1 mM ATP
[43] = target: T3, Glycogen synthase kinase-3 alpha; test: Inhibition of GSK3alpha (unknown origin) in presence of 1 mM ATP without preincubation
Target sequence in this assay (P49840 whole entry): as above

[44] = Oral bioavailability in rat at 10 mg/kg; type: ADME, organism-based; conditions: in vivo
[45] = MRT in rat at 2 mg/kg, iv; type: ADME, organism-based; conditions: in vivo
[46] = Cmax in rat at 10 mg/kg, po; type: ADME, organism-based; parameters: route oral, dose 10 mg/kg; conditions: in vivo
Homo sapiens [47] = species: Homo sapiens; test: Selectivity index, ratio of IC50 for CLK2 (unknown origin) in presence of 1 mM ATP without preincubation to IC50 for CLK2 (unknown origin) in presence of 1 mM ATP with preincubation
[48] = Tmax in rat at 10 mg/kg, po; type: ADME, organism-based; conditions: in vivo
[49] = Volume of distribution in dog at 1 mg/kg, iv; type: ADME, organism-based, Canis lupus familiaris; conditions: in vivo

Sequence of Dual specificity protein kinase CLK1 (P49759 whole entry): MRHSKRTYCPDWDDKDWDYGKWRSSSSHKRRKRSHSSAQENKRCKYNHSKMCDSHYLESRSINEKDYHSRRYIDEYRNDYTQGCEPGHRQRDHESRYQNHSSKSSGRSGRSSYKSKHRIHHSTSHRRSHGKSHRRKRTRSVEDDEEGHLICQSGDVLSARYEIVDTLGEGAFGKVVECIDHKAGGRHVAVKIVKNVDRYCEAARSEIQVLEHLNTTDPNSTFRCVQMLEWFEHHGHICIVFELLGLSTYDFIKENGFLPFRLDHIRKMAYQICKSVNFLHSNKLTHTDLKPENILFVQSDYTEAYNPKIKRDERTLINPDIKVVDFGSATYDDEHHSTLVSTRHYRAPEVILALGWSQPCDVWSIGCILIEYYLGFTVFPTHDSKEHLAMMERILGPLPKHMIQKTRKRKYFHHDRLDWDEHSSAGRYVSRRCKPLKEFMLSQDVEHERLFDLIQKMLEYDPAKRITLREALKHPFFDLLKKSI

`CCOC(=O)C1=C(NN2CCN(CC(F)(F)F)CC2)O/C(=C\c2c[nH]c3ncccc23)C1=O` [MONZOSERTIB] showed an inhibition [1] of 100%, an IC50 [2] of 0.034 µM and an Activity (COLO 205) of 51%. For the same compound, the inhibition [3] was over 30%, the IC50 [4] was 0.036 µM and the inhibition ([4]; dose 0.03-1 µM) was “Dose-Dependent Effect”. For the same compound, the half-life [5] was 4.19 h, the IC50 [6] was 0.206 µM and the remaining at 0.5 h [7] was 89%. It also gave an AUC(0-inf) [8] of 0.454 µg·h/mL, a clearance [9] of 0.81 L/h/kg and an IC50 [10] of 0.0082 µM. It also gave a Cmax [11] of 0.408 µg/mL, a half-life [12] of 6.1 h and an inhibition [13] of over 30%. The AUC(0-inf) [14] was 0.834 µg·h/mL, the Activity (SW-620 [15]) was “Dose-Dependent Effect” and the clearance [16] was 6.73 L/h/kg. For the same compound, the Cmax [17] was 0.285 µg/mL, the AUC(0-inf) [18] was 0.887 µg·h/mL and the Vd [19] was 3.1 L/kg. It also gave an MRT [20] of 5.26 h, a fraction unbound [21] of 0.088 and an IC50 [22] of 0.503 µM. The inhibition in vivo at 120 mg/kg [23] was 83%, the remaining at 0.5 h [24] was 18.7% and the inhibition [25] was “Active”. The IC50 [26] was 0.053 µM, the inhibition ([26]; dose 0.03-1 µM) was “Dose-Dependent Effect” and the half-life [27] was 3.01 h. For the same compound, the clearance [28] was 2.26 L/h/kg, the inhibition [29] was “inactive” and the IC50 [30] was 0.0024 µM. It also gave a Cmax [31] of 0.0961 µg/mL, a bioavailability [32] of 33.3% and a Cmax [33] of 1.21 µg/mL. For the same compound, the Vd [34] was 3.24 L/kg, the MRT [35] was 0.3 h and the inhibition in vivo at 120 mg/kg (SW-620 [36]) was 88%. For the same compound, the Ratio IC50 (Homo sapiens [37]) was 1, the Tmax [38] was 4.98 min and the inhibition in vivo at 120 mg/kg [39] was 36%. For the same compound, the remaining at 0.5 h [40] was 34.9%, the IC50 [41] was 0.251 µM and the Ratio IC50 (Homo sapiens [42]) was 210. The IC50 [43] was 0.189 µM, the bioavailability [44] was 54.4% and the MRT [45] was 1.45 h. The Cmax [46] was 0.426 µg/mL, the Ratio IC50 (Homo sapiens [47]) was 1.2 and the Tmax [48] was 1 h. For the same compound, the Vd [49] was 4.22 L/kg.
